These results are taken from PubChem BioAssay AID210 (DTP/NCI, 2004).

Each structure is given as a SMILES string. Values joined by “and” are separate entries in the source; they are usually repeats but may differ in a detail not shown here. Equal values may be shown once. Inconclusive results and toxic doses are left out.

In this test the test system is CD2F1 mice, ip Colon 26 adenocarcinoma, median survival T/C. The experiment in a line: NCI In Vivo Anticancer Drug Screen. Data for tumor model Colon 26 Adenocarcinoma (intraperitoneal) in CD2F1 (CDF1) mice. The conditions noted are these: endpoint: median survival time, higher = longer survival. As for the experimental part: The antitumor activity of compounds was measured in mice bearing transplantable tumors. Survival or tumor size were measured and the results are expressed as the measurement made in the treated group (T) divided by the measurement made in the vehicle treated control group (C). The tumor model used in this assay is Colon 26 Adenocarcinoma (intraperitoneal) in CD2F1 (CDF1) mice

[1] abbreviates: dose: 12.5 mg/kg/injection, schedule: Q04DX003 (ip), vehicle: saline with Tween-80.

In the case of `O=C1c2c(O)ccc(O)c2C(=O)c2c(NCCNCCO)ccc(NCCNCCO)c21`, the T/C was 216 % of control and 277 % of control (dose: 0.19 mg/kg/injection, schedule: Q01DX009 (ip), vehicle: saline); 359 % of control (dose: 0.25 mg/kg/injection, schedule: Q01DX009 (ip), vehicle: acid diluted with saline); 289 % of control and 416 % of control (dose: 0.38 mg/kg/injection, schedule: Q01DX009 (ip), vehicle: saline); 259 % of control (dose: 0.39 mg/kg/injection, schedule: Q01DX009 (ip), vehicle: acid diluted with saline); 104 % of control (dose: 0.39 mg/kg/injection, schedule: Q01DX009 (sc), vehicle: acid diluted with saline); 365 % of control (dose: 0.5 mg/kg/injection, schedule: Q01DX009 (ip), vehicle: acid diluted with saline). The T/C is 305 % of control (dose: 0.65 mg/kg/injection, schedule: Q01DX009 (ip), vehicle: acid diluted with saline); 104 % of control (dose: 0.65 mg/kg/injection, schedule: Q01DX009 (sc), vehicle: acid diluted with saline); 289 % of control and 416 % of control (dose: 0.75 mg/kg/injection, schedule: Q01DX009 (ip), vehicle: saline); 365 % of control (dose: 1.0 mg/kg/injection, schedule: Q01DX009 (ip), vehicle: acid diluted with saline); 386 % of control (dose: 1.04 mg/kg/injection, schedule: Q04DX003 (ip), vehicle: acid diluted with saline); 116 % of control (dose: 1.04 mg/kg/injection, schedule: Q04DX003 (iv), vehicle: acid diluted with saline). The T/C reads like this: (dose: 1.08 mg/kg/injection, schedule: Q01DX009 (ip), vehicle: acid diluted with saline) 353 % of control; (dose: 1.08 mg/kg/injection, schedule: Q01DX009 (sc), vehicle: acid diluted with saline) 112 % of control; (dose: 1.5 mg/kg/injection, schedule: Q01DX009 (ip), vehicle: saline) 109 % of control and 277 % of control; (dose: 1.5 mg/kg/injection, schedule: Q07DX003 (iv), vehicle: acid diluted with saline) 100 % of control; (dose: 1.73 mg/kg/injection, schedule: Q04DX003 (ip), vehicle: acid diluted with saline) 270 % of control; (dose: 1.73 mg/kg/injection, schedule: Q04DX003 (iv), vehicle: acid diluted with saline) 120 % of control. For the same compound, the T/C by setting is: (dose: 1.8 mg/kg/injection, schedule: Q01DX009 (ip), vehicle: acid diluted with saline) 110 % of control; (dose: 2.0 mg/kg/injection, schedule: Q01DX009 (ip), vehicle: acid diluted with saline) 365 % of control; (dose: 2.88 mg/kg/injection, schedule: Q04DX003 (ip), vehicle: acid diluted with saline) 265 % of control; (dose: 3.24 mg/kg/injection, schedule: Q01DX001 (ip), vehicle: acid diluted with saline) 209 % of control; (dose: 3.24 mg/kg/injection, schedule: Q01DX001 (iv), vehicle: acid diluted with saline) 114 % of control; (dose: 4.8 mg/kg/injection, schedule: Q04DX003 (ip), vehicle: acid diluted with saline) 197 % of control. For the same compound, the T/C was 237 % of control (dose: 5.4 mg/kg/injection, schedule: Q01DX001 (ip), vehicle: acid diluted with saline); 110 % of control (dose: 5.4 mg/kg/injection, schedule: Q01DX001 (iv), vehicle: acid diluted with saline); 96 % of control (dose: 6.0 mg/kg/injection, schedule: Q07DX003 (iv), vehicle: acid diluted with saline); 123 % of control (dose: 9.0 mg/kg/injection, schedule: Q01DX001 (ip), vehicle: acid diluted with saline); 123 % of control (dose: 9.0 mg/kg/injection, schedule: Q01DX001 (iv), vehicle: acid diluted with saline).
Regarding `O=NN(CCCl)C(=O)NCCCl`, the T/C (dose: 4.0 mg/kg/injection, schedule: Q04DX003 (ip), vehicle: saline + alcohol) was 168 % of control; the T/C (dose: 8.0 mg/kg/injection, schedule: Q04DX003 (ip), vehicle: saline + alcohol) was 250 % of control; the T/C (dose: 16.0 mg/kg/injection, schedule: Q04DX003 (ip), vehicle: saline + alcohol) is 335 % of control; the T/C (dose: 20.0 mg/kg/injection, schedule: Q04DX003 (oral), vehicle: saline + alcohol) was 161 % of control; the T/C (dose: 33.0 mg/kg/injection, schedule: Q04DX003 (oral), vehicle: saline + alcohol) is 255 % of control; the T/C (dose: 53.0 mg/kg/injection, schedule: Q04DX003 (oral), vehicle: saline + alcohol) is 289 % of control. For the same compound, the T/C (dose: 85.0 mg/kg/injection, schedule: Q04DX003 (oral), vehicle: saline + alcohol) was 285 % of control.
`Nc1ccc2nc3ccc(N)cc3[n+](-c3ccccc3)c2c1`: the T/C by setting is: (dose: 4.0 mg/kg/injection, schedule: Q04DX003 (ip), vehicle: saline) 121 % of control; (dose: 8.0 mg/kg/injection, schedule: Q04DX003 (ip), vehicle: saline) 120 % of control; (dose: 16.0 mg/kg/injection, schedule: Q04DX003 (ip), vehicle: saline) 120 % of control.
Turning to `ClCCCCCCCCCCc1ccccc1`, the T/C (dose: 12.5 mg/kg/injection, schedule: Q04DX003 (ip), vehicle: Klucel (hydroxypropylcellulose) (HPC)) is 102 % of control; the T/C (dose: 25.0 mg/kg/injection, schedule: Q04DX003 (ip), vehicle: Klucel (hydroxypropylcellulose) (HPC)) is 106 % of control; the T/C (dose: 50.0 mg/kg/injection, schedule: Q04DX003 (ip), vehicle: Klucel (hydroxypropylcellulose) (HPC)) is 100 % of control; the T/C (dose: 100.0 mg/kg/injection, schedule: Q04DX003 (ip), vehicle: Klucel (hydroxypropylcellulose) (HPC)) was 100 % of control; the T/C (dose: 200.0 mg/kg/injection, schedule: Q04DX003 (ip), vehicle: Klucel (hydroxypropylcellulose) (HPC)) was 106 % of control; the T/C (dose: 400.0 mg/kg/injection, schedule: Q04DX003 (ip), vehicle: Klucel (hydroxypropylcellulose) (HPC)) is 114 % of control.
Regarding `[I][Hg][CH2]C1COC([CH2][Hg][I])CO1` (configuration not stated), the T/C by setting is: under setting [1], 117 % of control; (dose: 25.0 mg/kg/injection, schedule: Q04DX003 (ip), vehicle: saline with Tween-80) 109 % of control; (dose: 50.0 mg/kg/injection, schedule: Q04DX003 (ip), vehicle: saline with Tween-80) 96 % of control.
Regarding `O=C1c2ccccc2C(=O)c2c(NCCN3CCNCC3)ccc(NCCN3CCNCC3)c21`, the T/C is 106 % of control (dose: 4.0 mg/kg/injection, schedule: Q01DX009 (ip), vehicle: acid diluted with saline); 114 % of control (dose: 8.0 mg/kg/injection, schedule: Q01DX009 (ip), vehicle: acid diluted with saline); 114 % of control (dose: 16.0 mg/kg/injection, schedule: Q01DX009 (ip), vehicle: acid diluted with saline).
On to `CC1(C(=O)O)C(O)CCC2(C)C1CCC1CC3CC12CCC3(O)CO` (configuration not stated), for which the T/C runs as follows: (dose: 2.5 mg/kg/injection, schedule: Q04DX002 (ip), vehicle: saline with Tween-80) 92 % of control; (dose: 5.0 mg/kg/injection, schedule: Q04DX002 (ip), vehicle: saline with Tween-80) 98 % of control; (dose: 10.0 mg/kg/injection, schedule: Q04DX002 (ip), vehicle: saline with Tween-80) 106 % of control; (dose: 20.0 mg/kg/injection, schedule: Q04DX002 (ip), vehicle: saline with Tween-80) 95 % of control; (dose: 40.0 mg/kg/injection, schedule: Q04DX002 (ip), vehicle: saline with Tween-80) 100 % of control; (dose: 80.0 mg/kg/injection, schedule: Q04DX002 (ip), vehicle: saline with Tween-80) 101 % of control. Further, the T/C reads like this: (dose: 100.0 mg/kg/injection, schedule: Q04DX002 (ip), vehicle: distilled water + Tween-80) 94 % of control; (dose: 200.0 mg/kg/injection, schedule: Q04DX002 (ip), vehicle: distilled water + Tween-80) 97 % of control.
For `CC[N+](CC)(CC)CC`, the T/C (dose: 1.56 mg/kg/injection, schedule: Q04DX003 (ip), vehicle: saline with Tween-80) was 114 % of control; the T/C (dose: 3.12 mg/kg/injection, schedule: Q04DX003 (ip), vehicle: saline with Tween-80) is 107 % of control and 113 % of control; the T/C (dose: 6.25 mg/kg/injection, schedule: Q04DX003 (ip), vehicle: saline with Tween-80) is 111 % of control; the T/C under setting [1] is 175 % of control; the T/C (dose: 12.5 mg/kg/injection, schedule: Q04DX003 (oral), vehicle: saline with Tween-80) is 109 % of control; the T/C (dose: 25.0 mg/kg/injection, schedule: Q04DX003 (oral), vehicle: saline with Tween-80) was 105 % of control. For the same compound, the T/C (dose: 50.0 mg/kg/injection, schedule: Q04DX003 (oral), vehicle: saline with Tween-80) is 104 % of control and the T/C (dose: 100.0 mg/kg/injection, schedule: Q04DX003 (oral), vehicle: saline with Tween-80) was 94 % of control.
